From patent US4859678A, “N-oxide ergolines as antihypertensive agents” (Farmitalia Carlo Erba, priority 1987, dated 1989)

Tested on: mean blood pressure
Assay: Antihypertensive activity: intra-arterial mean blood pressure after single oral dose in rats
Type: in vivo
Details: rat, p.o.; for ED25 (dose lowering mean blood pressure of 25 mmHg) / ED (25 mmHg): single dose, calculated from dose-response regression line; for Decrease in mean blood pressure at 15' / Decrease in mean blood pressure at 30' / Decrease in mean blood pressure at 1 h / Decrease in mean blood pressure at 2 h / Decrease in mean blood pressure at 3 h / Decrease in mean blood pressure at 4 h / Decrease in mean blood pressure at 5 h / Decrease in mean blood pressure at 6 h / Decrease in mean blood pressure at 8 h / Decrease in mean blood pressure at 10 h / Decrease in mean blood pressure at 12 h: ex 40 0.125, Example 1 0.5, ex 41 0.25, Example 2 1 mg/kg; for Decrease in mean blood pressure at 15': 15 min, not significant (**): Example 1; for Decrease in mean blood pressure at 30': 30 min; for Decrease in mean blood pressure at 6 h: not significant (**): ex 41; for Decrease in mean blood pressure at 8 h / Decrease in mean blood pressure at 10 h / Decrease in mean blood pressure at 12 h: not significant (**): ex 40, ex 41; for ED (25 mmHg): po, read-out: ED25 (dose lowering mean blood pressure of 25 mmHg)
Description: Intrarterial measurements of mean blood pressure (MBP) were performed through catheters (PE 50, Clay Adams) implanted in the rat right carotid artery under halothane anesthesia. Twenty four hours after surgery, the animals were placed in Ballman cages and the arterial cannula was connected via a pressure transducer to a Beckman blood pressure recorder for continuous monitoring of mean blood pressure. MBP was recorded before the oral administration (basal values) and at 15-30-60-120-240 minutes until 12 hours after treatment. Groups of 7 to 8 rats were orally treated with a single dose of the test compound of vehicle, methocel 0.5% w/v (0.2 ml/100 g b.w.). The ED25 was calculated for each compound from the dose-response regression line.
As reference standard drugs, two prior art ergoline derivatives described by EP 0126968 were also tested.
In fact, the mean blood pressure decrease induced by the two derivatives of the present invention was still significant 10 to 12 hours after dosing, whereas with the prior art compounds the hypotensive effect lasted only 5 to 6 hours. The oral orientative acute toxicity (LD50) in mice (evaluated in the Irwin test) of the compounds of the formula I was higher than 800 mg/kg.

Row | Compound | ED25 (dose lowering mean blood pressure of 25 mmHg) [mg/Kg^-1] | Decrease in mean blood pressure at 15' | Decrease in mean blood pressure at 30' | Decrease in mean blood pressure at 1 h | Decrease in mean blood pressure at 2 h | Decrease in mean blood pressure at 3 h | Decrease in mean blood pressure at 4 h | Decrease in mean blood pressure at 5 h | Decrease in mean blood pressure at 6 h | Decrease in mean blood pressure at 8 h | Decrease in mean blood pressure at 10 h | Decrease in mean blood pressure at 12 h | ED (25 mmHg) [mg/kg]
1 | 1-[6-methyl -Δ- 9,10-ergolen -8β- yl)methyl]-2,4-(1H,3H)dihydro-pyrimidinedione-N6-oxide [Example 1] | 0.050 | -12.2 ΔmmHg | -21.0 ΔmmHg | -32.2 ΔmmHg | -35.5 ΔmmHg | -45.1 ΔmmHg | -55.1 ΔmmHg | -58.5 ΔmmHg | -54.3 ΔmmHg | -44.3 ΔmmHg | -35.5 ΔmmHg | -27.2 ΔmmHg | –
2 | C[N+]1([O-])C[C@H](CN2CC(=O)NC2=O)C=C2c3cccc4[nH]cc(c34)C[C@H]21 (stereo partly drawn) [Example 2, 1-[(6-methyl -Δ-9,10-ergolen-8β-yl)methyl]-2,4-imidazolidinedione-N6-oxide] | – | -23.1 ΔmmHg | -27.5 ΔmmHg | -35.9 ΔmmHg | -34.1 ΔmmHg | -35.0 ΔmmHg | -38.4 ΔmmHg | -36.5 ΔmmHg | -34.1 ΔmmHg | -27.8 ΔmmHg | -22.5 ΔmmHg | -16.2 ΔmmHg | 0.198
3 | CN1C[C@H](Cn2ccc(=O)[nH]c2=O)C=C2c3cccc4[nH]cc(c34)C[C@H]21 [Standard, ex 40 of EP 0126968, 1-[(6-methy -Δ-9,10-ergolen-8β-yl)methyl]-2,4-(1H,3H)dihydro-pyrimidine diole] | 0.046 | -22.9 ΔmmHg | -34.5 ΔmmHg | -33.9 ΔmmHg | -37.3 ΔmmHg | -34.5 ΔmmHg | -42.7 ΔmmHg | -28.9 ΔmmHg | -25.5 ΔmmHg | -10.5 ΔmmHg | -7.3 ΔmmHg | -6.7 ΔmmHg | –
4 | CN1C[C@H](CN2CC(=O)NC2=O)C=C2c3cccc4[nH]cc(c34)C[C@H]21 [Standard, ex 41 of EP 0126968, 1-[(6-methyl-Δ-9,10-ergolen-8β-yl)methyl]-2,4-imidazolidinedione] | – | -26.8 ΔmmHg | -31.4 ΔmmHg | -29.6 ΔmmHg | -37.5 ΔmmHg | -35.7 ΔmmHg | -31.4 ΔmmHg | -15.7 ΔmmHg | -14.6 ΔmmHg | -2.5 ΔmmHg | -6.5 ΔmmHg | -9.4 ΔmmHg | 0.19
